The target of assay [1] is T1, Kv1.2/Y266A (Homo sapiens, UniProt P16389, Y266A).
T1 construct: expressed in transfected cells; host or cells: CHO-K1
The experiment in a line: Whole-cell patch clamp, Tyr-to-Ala mutant homologous to Kv1.3 Y339. The class given is cell-based. The following applies: +30 mV, mean ± SD, n = 4–6. From the text: Building on the identification of key amino acid residues in Kv1.3 channel that interact with MrVIII through alanine-scanning mutagenesis, we extended our analysis to explore these residues across other Kv1 subfamily channels. […] However, MrVIII retained substantial inhibitory potency on Kv1.2/Y266A mutant, albeit without fully blocking the channel current. […] The profound reduction in MrVIII's effect across homologous mutants supports the idea that it binds to a conserved region.
The cDNA of hKv1.1, hKv1.2, hKv1.3, rKv1.4, hKv1.5, mKv1.6, and hKv1.7 were subcloned into mammalian expression vectors pcDNA3.1 or pCMV-blank vectors, as well as other plasmids described previously ([35]). Channel mutants were generated by site-directed mutations. Briefly, the parental channel plasmid was amplified using a pair of oppositely directed primers harboring the designed mutation site, with KOD Fx (TOYOBO Co, Ltd). The resulting PCR mix was treated with FastDigest DpnI (Thermo Fisher Scientific) to remove the methylated template. […]
CHO-K1 cells were selected for expressing Kv channels due to their lack of endogenous Kv channels, while HEK293 or ND7/23 cells were used for Nav and Cav channel expression. […] After 4 to 6 h transfection, cells were seeded onto poly-lysine–coated coverslips, and 24 to 36 h later, transfected cells were ready for patch-clamp analysis. […]
Background: Patch clamp records ionic current or voltage across a cell membrane.

Assay [2] relates to Kv1.1/1.3 S3-S4 chimeric channel. Nature of the assay: Whole-cell patch clamp, chimeric channel. The class given is cell-based, human. The following applies: +30 mV, 500 ms, mean ± SD, n = 4-5, read-out: IC50, Kv1.1/1.3 S3-S4 current (complete inhibition). From the text: (§1) To investigate the structural determinants underlying the differential regulatory effects of MrVIII on Kv1 channels, we employed a chimeric channel strategy. Using Kv1.3 as the template, the S1-S2, S3-S4, and S5-S6 transmembrane helices and their respective linkers from Kv1.1 were inserted to generate chimeras, generating the Kv1.3/1.1 S1-S2, Kv1.3/1.1 S3-S4, and Kv1.3/1.1 S5-S6 chimeric channels. […] These findings indicate that the S3-S4 is the key determinant for the differential inhibition of Kv1.1 and Kv1.3 by MrVIII. To further validate this conclusion, we constructed a reverse chimeric channel using Kv1.1 as the template, inserting the corresponding regions from Kv1.3 into Kv1.1. […] This finding more directly illustrates the exchange of the channel's voltage-dependence phenotype in toxin inhibition by swapping this S3-S4 between Kv1.1 and Kv1.3. […] In addition to confirming the differential role of S3-S4 between Kv1.1 and Kv1.3, we also substituted the S3-S4 of Kv1.4 and Kv1.7 into Kv1.3 to analyze MrVIII's inhibition profile. […] The IC50 for Kv1.3/1.7 S3-S4 could not be fitted, and inhi%(495 ms) was only 23.1 ± 10.0% (Fig. S2, E and F).
(§2) The cDNA of hKv1.1, hKv1.2, hKv1.3, rKv1.4, hKv1.5, mKv1.6, and hKv1.7 were subcloned into mammalian expression vectors pcDNA3.1 or pCMV-blank vectors, as well as other plasmids described previously ([35]). Channel mutants were generated by site-directed mutations. Briefly, the parental channel plasmid was amplified using a pair of oppositely directed primers harboring the designed mutation site, with KOD Fx (TOYOBO Co, Ltd). The resulting PCR mix was treated with FastDigest DpnI (Thermo Fisher Scientific) to remove the methylated template. Ten microliters of the digested product was then used to transform 100 μl E. coli DH5α competent cells. Transformants were randomly picked and sequenced to confirm the presence of the intended mutation.
(§3) CHO-K1 cells were selected for expressing Kv channels due to their lack of endogenous Kv channels, while HEK293 or ND7/23 cells were used for Nav and Cav channel expression. CHO-K1 cells were cultured in a Dulbecco's modified Eagle's medium/Ham's F-12 nutrient mixture (DMEM-F12) medium, and HEK293T and ND7/23 cells in DMEM medium, all supplemented with 10% fetal bovine serum and 1% penicillin-streptomycin (all from Gibco, Thermo Fisher Scientific, Inc) under standard conditions (37 °C, 5% CO2, and saturated humidity). These cell lines were purchased from Stem Cell Bank, Chinese Academy of Sciences. Channel plasmids were cotransfected with pEGFP-N1 (encoding GFP) into the respective cells using lipofectamine 2000, following the manufacturer's instructions (Invitrogen, Thermo Fisher Scientific, Inc.). Nav1.9-GFP plasmid was transfected into ND7/23 using the X-tremeGENE HP DNA Transfection Reagent (Roche). After 4 to 6 h transfection, cells were seeded onto poly-lysine–coated coverslips, and 24 to 36 h later, transfected cells were ready for patch-clamp analysis.
(§4) Patch clamp experiments were conducted using an electrophysiology platform comprising a MultiClamp 700B amplifier and an Axon Digidata 1550 AD/DA convertor (Axon Instruments). Data acquisition was performed with pClamp 10.5 software (Axon Instruments). All experiments were performed at room temperature.
(§5) For Kv current recordings, the bath solution contained (in mM) the following: 140 NaCl, 5 KCl, 1 MgCl2, 2 CaCl2, 10 glucose, and 10 Hepes (pH 7.3, adjusted with NaOH), and the pipette solution contained (in mM) the following: 140 KCl, 2.5 MgCl2, 11 EGTA, and 10 Hepes (pH 7.3, adjusted with KOH). Series resistance was maintained below 10 MΩ and compensated to 80%. Concentration–response curves were fitted by the Hill equation to determine the toxin's potency. Whole cell conductance (G) at each depolarizing voltage (V) was determined using the equation: G = I/(V−Vrev), where I is the current amplitude, and Vrev is the reversal potential. […]

In assay [3] the test system is Kv1.3/1.7 S3-S4 chimeric channel. The experiment in a line: Whole-cell patch clamp, chimeric channel. The class given is cell-based, human. The following applies: current at 495 ms, +30 mV, IC50 could not be fitted, mean ± SD, n = 5-6.
From the text: as §1, §2, §3, §4, §5

Assay [4] deals with Kv1.1/1.3 S1-S2 chimeric channel. Nature of the assay: Whole-cell patch clamp, chimeric channel. The note with it: +30 mV, mean ± SD. The class given is cell-based, human.
From the text: as §1, §2, §3, §4, §5

The subject of assay [5] is Kv1.3/1.1 S1-S2 chimeric channel. The experiment in a line: Whole-cell patch clamp, chimeric channel. The class given is cell-based, human. The following applies: +30 mV, 500 ms, holding −80 mV, mean ± SD, n = 4-5, read-out: IC50, Kv1.3/1.1 S1-S2 current.
From the text: as §1, §2, §3, §4, §5

Bridge positions count the residues as written; N and C are the ends. Peptide text beside a SMILES is read from it.

T1 sequence (P16389 whole entry Y266A): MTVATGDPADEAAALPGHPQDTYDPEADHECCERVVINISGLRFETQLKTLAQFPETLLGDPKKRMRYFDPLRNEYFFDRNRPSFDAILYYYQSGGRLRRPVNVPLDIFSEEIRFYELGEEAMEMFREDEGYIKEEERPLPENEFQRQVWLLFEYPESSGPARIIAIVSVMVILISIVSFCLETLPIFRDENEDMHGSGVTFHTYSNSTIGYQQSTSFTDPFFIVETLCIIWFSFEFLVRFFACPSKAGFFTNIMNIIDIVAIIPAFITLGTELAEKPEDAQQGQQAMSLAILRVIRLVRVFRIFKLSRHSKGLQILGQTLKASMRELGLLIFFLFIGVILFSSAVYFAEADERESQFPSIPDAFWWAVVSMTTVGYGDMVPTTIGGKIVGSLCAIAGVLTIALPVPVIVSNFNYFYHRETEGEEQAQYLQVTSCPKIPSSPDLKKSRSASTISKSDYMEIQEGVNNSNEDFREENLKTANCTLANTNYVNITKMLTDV

As for `CC[C@H](C)[C@@H]1NC(=O)[C@H](Cc2ccc(O)cc2)NC(=O)[C@H](CCC(N)=O)NC(=O)[C@@H]2CCCN2C(=O)[C@@H]2CSSC[C@H](NC(=O)[C@H](C)NC(=O)[C@H](CO)NC(=O)[C@H](CCC(=O)O)NC(=O)[C@H](CCC(=O)O)NC(=O)[C@@H](N)[C@@H](C)O)C(=O)NCC(=O)NCC(=O)N[C@@H](Cc3ccccc3)C(=O)N[C@@H](CC(N)=O)C(=O)N[C@@H](C)C(=O)N[C@@H](CCCNC(=N)N)C(=O)N[C@H]3CSSC[C@H](NC1=O)C(=O)N[C@@H](CCCCN)C(=O)NCC(=O)N[C@@H](Cc1c[nH]c4ccccc14)C(=O)N[C@@H](CCCNC(=N)N)C(=O)N[C@@H]([C@@H](C)O)C(=O)N[C@@H](CCCCN)C(=O)N[C@@H](CCCNC(=N)N)C(=O)N[C@H](C(=O)N[C@@H](CC(C)C)C(=O)N[C@@H](CC(N)=O)C(=O)N1CCC[C@H]1C(=O)O)CSSC[C@H](NC(=O)[C@H](CCCCN)NC(=O)[C@H](Cc1c[nH]cn1)NC(=O)[C@H](CC(C)C)NC(=O)[C@@H]1CCCN1C3=O)C(=O)N2` [MrVIII] (H-TEESACGGFNARCPLHKCCPQYICKGWRTKRCLNP-OH; disulfide 6-19, 13-24, 18-32; N-terminus and C-terminus assumed), the IC50 came out at 418 ± 41.2 nM in assay [1] (current at 50 ms); 1.7 ± 0.6 nM in assay [2]; 103 ± 59.1 nM in assay [4] (current at 50 ms, n = 4-5); 1.9 ± 1.1 nM in assay [5]. Also, the “inhi%(495 ms), Kv1.2/Y266A current” value in assay [1] (current at 495 ms) was found to be 36.9 ± 14.1%. The “inhi%(495 ms), Kv1.3/1.7 S3-S4 current” value in assay [3] came out at 23.1 ± 10.0%. Further, in assay [4] (current at 495 ms), the “inhi%(495 ms), Kv1.1/1.3 S1-S2 current” value was 60.5 ± 18.5%.

The record behind these values is paper PMC11984586, “A novel spider toxin as a selective antagonist of the Kv1 subfamily of voltage-gated potassium channels through gating modulation” (The Journal of Biological Chemistry, 2025).
